Results: patent US10988523B2, “Modified lipidated Relaxin B chain peptides and their therapeutic use” (Sanofi, priority 2018, dated 2021)
*1 amine or outer side, *2 acyl side, *3 side chain or, on linkers, in order; H or OH if unused. Where a SMILES comes first, the peptide text is derived from it. Side-chain parts run from the residue outwards. [ ]: non-standard residue; d: D form. The star is where a group is joined. PEG12 = NCCOCCOCCOCCOCCOCCOCCOCCOCCOCCOCCOCCOCCC(=O)O; γGlu = O=C(O)[C@H](CCC(=O)[*:2])N[*:1]; 1Nal = N[C@@H](Cc1cccc2ccccc12)C(=O)O; Stearoyl = CCCCCCCCCCCCCCCCCC(=O)*; Palmitoyl = CCCCCCCCCCCCCCCC(=O)*; αMeK = C[C@](N)(CCCCN)C(=O)O; Nle = CCCC[C@H](N)C(=O)O; AEEA = NCCOCCOCC(=O)O; Aib = CC(C)(N)C(=O)O

Target: T1, RXFP1 (Homo sapiens, UniProt Q9HBX9)
T1 construct: OVCAR5 cells expressing endogenous RXFP1; endogenous in cells; host or cells: OVCAR5 cells
T1 sequence (Q9HBX9 1-757): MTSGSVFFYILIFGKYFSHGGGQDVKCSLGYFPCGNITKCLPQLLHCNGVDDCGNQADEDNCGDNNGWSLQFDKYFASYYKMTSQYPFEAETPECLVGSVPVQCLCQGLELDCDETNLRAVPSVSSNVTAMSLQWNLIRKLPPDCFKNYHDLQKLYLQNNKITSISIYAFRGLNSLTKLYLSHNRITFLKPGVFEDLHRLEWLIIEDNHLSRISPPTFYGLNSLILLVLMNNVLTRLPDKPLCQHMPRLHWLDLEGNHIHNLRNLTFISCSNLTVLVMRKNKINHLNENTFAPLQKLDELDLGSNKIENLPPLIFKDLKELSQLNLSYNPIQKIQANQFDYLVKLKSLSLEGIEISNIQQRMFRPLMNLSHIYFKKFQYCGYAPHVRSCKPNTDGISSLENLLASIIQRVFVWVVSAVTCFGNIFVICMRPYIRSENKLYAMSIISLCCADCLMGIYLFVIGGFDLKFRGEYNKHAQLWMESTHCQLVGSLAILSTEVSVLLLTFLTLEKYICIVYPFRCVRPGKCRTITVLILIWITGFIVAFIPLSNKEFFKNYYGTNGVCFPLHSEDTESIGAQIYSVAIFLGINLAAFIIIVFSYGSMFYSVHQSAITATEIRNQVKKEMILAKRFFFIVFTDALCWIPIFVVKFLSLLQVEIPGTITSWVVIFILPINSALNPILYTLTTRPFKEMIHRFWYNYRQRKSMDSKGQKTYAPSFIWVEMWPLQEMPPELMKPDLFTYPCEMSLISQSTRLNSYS
Test: OVCAR5 cAMP assay (HTRF), RXFP1 agonist activity
Format: cell-based
Settings: for EC50: OVCAR5 cells, cAMP HTRF, read-out: EC50 (nM), OVCAR 5 cells (cAMP); for Emax: OVCAR-5, maximal cAMP relative to H2-relaxin maximum (100%), read-out: EMax, OVCAR 5 cells (cAMP)
Outline: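 OVCAR5 cells (endogenous RXFP1) pretreated 40 min at 37° C with 1 mM IBMX, then exposed to peptides in serum-free medium for 30 min at 37° C. Lysate cAMP read by HTRF; EC50 from variable-slope sigmoidal fit; Emax as % of H2-relaxin maximal cAMP in same run.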

SMILES | EC50 [nM] | Emax [%]
CCCCCCCCCCCCCCCC(=O)N[C@@H](CCC(=O)NCCCC[C@H](NC(=O)CC[C@H](NC(=O)CC[C@H](NC(=O)CC[C@H](NC(=O)COCCOCCNC(=O)COCCOCCNC(=O)COCCOCCNC(=O)COCCOCCNC(=O)[C@H](CCCCNC(C)=O)NC(=O)[C@H](C)NC(=O)[C@H](C)NC(=O)[C@](C)(CCCCN)NC(=O)[C@H](CO)NC(=O)[C@H](Cc1ccccc1)NC(=O)[C@@H](NC(=O)[C@H](CO)NC(=O)[C@H](CCCC)NC(=O)CNC(=O)[C@H](CCC(=O)O)NC(=O)C(C)(C)NC(=O)C(C)(C)NC(=O)[C@@H](NC(=O)[C@H](CCCCNC(C)=O)NC(=O)[C@H](C)NC(=O)[C@H](CCCNC(=N)N)NC(=O)[C@@H](NC(=O)[C@H](CCCCN)NC(=O)[C@H](CCC(=O)O)NC(=O)[C@H](CCCNC(=N)N)NC(=O)CNC(=O)[C@H](CCC(=O)O)NC(=O)[C@H](CC(C)C)NC(C)=O)C(C)C)[C@@H](C)CC)[C@@H](C)O)C(=O)O)C(=O)O)C(=O)O)C(N)=O)C(=O)O [compound 139] (Ac-LEGREKVRAK(Ac)I[Aib][Aib]EG[Nle]STFS[αMeK]AAK(Ac)[AEEA][AEEA][AEEA][AEEA][γGlu][γGlu][γGlu]K([γGlu-Palmitoyl])-NH2) | 0.3 | 92
CCCCCCCCCCCCCCCCCC(=O)N[C@@H](CCC(=O)N[C@@H](CCC(=O)N[C@@H](CCC(=O)NCCOCCOCC(=O)NCCOCCOCC(=O)NCCOCCOCC(=O)NCCCC[C@H](NC(=O)[C@H](CCCCN)NC(=O)[C@H](CCCNC(=N)N)NC(=O)C(C)(C)NC(=O)[C@H](CO)NC(=O)[C@H](Cc1cccc2ccccc12)NC(=O)[C@@H](NC(=O)[C@H](CO)NC(=O)[C@H](CCCC)NC(=O)CNC(=O)[C@H](CCC(=O)O)NC(=O)C(C)(C)NC(=O)C(C)(C)NC(=O)[C@@H](NC(=O)[C@H](CCCCNC(C)=O)NC(=O)[C@H](C)NC(=O)[C@H](CCCNC(=N)N)NC(=O)[C@@H](NC(=O)[C@H](CCCCN)NC(=O)[C@H](CCC(=O)O)NC(=O)[C@H](CCCNC(=N)N)NC(=O)CNC(=O)[C@H](CCC(=O)O)NC(=O)[C@H](CC(C)C)NC(C)=O)C(C)C)[C@@H](C)CC)[C@@H](C)O)C(N)=O)C(=O)O)C(=O)O)C(=O)O [compound 79] (Ac-LEGREKVRAK(Ac)I[Aib][Aib]EG[Nle]ST[1Nal]S[Aib]RKK([AEEA-AEEA-AEEA-γGlu-γGlu-γGlu-Stearoyl])-NH2) | 0.4 | 75
CCCCCCCCCCCCCCCCCC(=O)NCCCC[C@H](NC(=O)CCOCCOCCOCCOCCOCCOCCOCCOCCOCCOCCOCCOCCNC(=O)[C@H](CCCCNC(C)=O)NC(=O)[C@H](CCCCN)NC(=O)[C@H](CCCNC(=N)N)NC(=O)C(C)(C)NC(=O)[C@H](CO)NC(=O)[C@H](Cc1c[nH]c2ccccc12)NC(=O)[C@@H](NC(=O)[C@H](CO)NC(=O)[C@H](CCCC)NC(=O)CNC(=O)[C@H](CCC(=O)O)NC(=O)C(C)(C)NC(=O)C(C)(C)NC(=O)[C@@H](NC(=O)[C@H](CCC(N)=O)NC(=O)[C@H](C)NC(=O)[C@H](CCCNC(=N)N)NC(=O)[C@@H](NC(=O)[C@H](CCCCN)NC(=O)[C@H](CCC(=O)O)NC(=O)[C@H](CCCNC(=N)N)NC(=O)CNC(=O)[C@H](CCC(=O)O)NC(=O)[C@H](CC(C)C)NC(C)=O)C(C)C)[C@@H](C)CC)[C@@H](C)O)C(N)=O [compound 21] (Ac-LEGREKVRAQI[Aib][Aib]EG[Nle]STWS[Aib]RKK(Ac)[PEG12]K(Stearoyl)-NH2) | – | 88
